# Publication PMC7804942, “The amphibian peptide Yodha is virucidal for Zika and dengue viruses” (Scientific Reports, 2021)
# Where two headings read alike, the source gives them in different places. Where a SMILES comes first, the peptide text is derived from it.
# What was measured:
# [1] = test system: DENV3; details: FFA
# Method: Dengue virus strains 1, 2, 3 and 4 were treated with wither Yodha or control OVA peptide at (A) 50 µM (B) 160 µM concentration and the % of viral focus forming units were determined. (C) IC50 measurement of Yodha in DENVs infection by FFA. […] OVA peptide was used a negative control.
# (§1) Peptides were incubated with ZIKV (100 FFU/well) for 2 h at 37 °C. This incubated mixture was used to infect Vero cells for 1.5 h at 37 °C. Cells and inoculum were overlaid with 2% methylcellulose solution (OptiMEM; Gibco) and incubated for 72 h at 37 °C. Cells were washed with PBS and fixed with a 1:1 methanol/acetone mixture for 30 min. Cells were blocked with 5% milk/PSB at room temperature for 20 min and incubated with primary antibody (anti-flavivirus mouse 4G2[10] antibody) for 2 h at 37 °C. Then, cells were incubated with secondary antibody (HRP-conjugated goat anti-mouse IgG, Cell Signaling) for 1 h at 37 °C. Cells were developed with TrueBlue Peroxidase Substrate (KPL). Plates were read on a CTL-ImmunoSpot S6 Micro analyzer.
# [2] = test system: ZIKV MR-766 (Uganda, 1947); assay: Focus forming assay, ZIKV strain panel; assay type: cell-based, Zika virus; details: 50 µM and 100 µM peptide vs OVA control, FFA
# Method: (§2) For all our experiments in Fig. 1, we used the PRVABC59 (Puerto Rico 2015) strain of ZIKV. […] The Yodha peptide inhibited all ZIKV strains (Fig. 1H,I).
# as §1
# [3] = test system: ZIKV P6-740 (Malaysia, 1966); assay: Focus forming assay, ZIKV strain panel; assay type: cell-based, Zika virus; details: 50 µM and 100 µM peptide vs OVA control, FFA
# Method: as §2, §1
# [4] = test system: ZIKV DakAr41524 (Senegal 1984); assay: Focus forming assay, ZIKV strain panel; assay type: cell-based, Zika virus; details: 50 µM and 100 µM peptide vs OVA control, FFA
# Method: as §2, §1
# [5] = test system: ZIKV; assay: Transmission electron microscopy of peptide-treated ZIKV; parameters: species or system Zika virus; details: 200 µM peptide, 10 min, negative staining TEM
# Method: To test this, we treated ZIKV with Yodha peptide or control peptide for 10 min and analyzed virus particles by electron microscopy.
# (A) TEM micrographs of ZIKV treated with OVA (control) or Yodha peptide are shown. ZIKV were incubated with the peptides at 200 µM for just 10 min, fixed with paraformaldehyde and then processed for electron microscopy. Yodha treatment led to loss of morphology and aggregation of virus particles. (B) Enlarged images of ZIKV treated with control or Yodha peptide from (A) are shown. The data is representative of three experiments performed.
# ZIKV samples were fixed with 4% buffered paraformaldehyde before negative staining. 5 µl of Zika sample was then deposited onto a 400-mesh carbon-coated copper grid that had been treated by glow-discharged for 20 s and allowed 5 min for the sample to settle in a covered glass dish. The grids with samples were then quickly washed by touching the sample side on two drops double distilled water, wick with filter paper, and then stained with 1% phosphotungstic acid (PTA) for 15 s before removing PTA with filter paper. Zika virus was imaged on a JEOL JEM-1400 transmission electron microscope (JEOL Ltd., Tokyo, Japan) equipped with a Gatan US1000 CCD camera (Gatan, Pleasanton, CA).
# [6] = test system: ZIKV (PRVABC59); assay: ZIKV entry, immunofluorescence of flavivirus E protein in Vero cells; assay type: cell-based, Zika virus; details: ZIKV exposed to peptide, then Vero cells infected for 30 min
# Method: Next, we determined whether the observed Yodha peptide-induced decrease in viral titers was due to blocked viral entry. We reasoned that if the peptide directly kills or disrupts the envelope structure of ZIKV, this would prevent virus entry. To test this, we designed an experiment to measure virus entry, by allowing ZIKV to bind cells at 4 °C for 1 h followed by shifting the cells to 37 °C to permit virus entry (Fig. 2A). It has been shown that DENV2 entry occurs within 25 min by early endosome trafficking. Briefly, we exposed ZIKV to Yodha peptide and then allowed the virus to infect Vero cells for 30 min. We then measured viral RNA within the Vero cells by quantitative Real Time-PCR (qRT-PCR) (Fig. 2B). […] Next, we visualized ZIKV entry or lack thereof by immunofluorescence using antibodies against pan flavivirus E protein. […] Next, we sought to determine if Yodha peptide could reduce infectious virus production in cells already infected with ZIKV. Briefly, we infected Vero cells, allowed virus attachment and entry, and then added Yodha peptide to the culture medium at 1, 24, 48, and 72 h post-infection. We collected culture supernatants at 3, 24, 48, and 72 h after ZIKV infection to quantitate ZIKV by FFU assay (Fig. 2E). ZIKV was not detected at 3 h post-infection in both OVA- or Yodha-treated cells. […]
# [7] = test system: human red blood cells; assay type: cell-based
# Method: Single donor human red blood cells (Innovative Research) were washed in PBS (pH 7.4) with three times centrifugation at 500 × g for 5 min. Serially diluted frog peptides or OVA control peptide were prepared in V-bottom 96 well plates and mixed with washed 2 × 10^7 human RBC per each well for 1 h at 37 °C. PBS solution was used as a negative control (0% lysis), and 0.1% Triton X-100 in PBS was used as 100% lysis. The plates were centrifuged at 300 × g at 4 °C for 5 min to pellet the intact RBCs and supernatant of each well was measured by absorbance at 450 nm.
# [8] = test system: ZIKV; assay: ZIKV neutralisation by mutant, enantiomer and variant peptides (strain not stated); assay type: cell-based, Zika virus
# Method: To further characterize Yodha peptide, we generated alanine-scanning mutants of the peptide, which removes the side chain, but maintains peptide conformation, allowing for the assessment of the significance of each amino acid within the larger structure (Fig. 4A). Each of 23 mutated peptides was tested for its (a) ability to neutralize ZIKV (Fig. 4B) and (b) toxicity against human RBC, if any (Fig. 4C).
# So next, we sought to determine how common this peptide or its analogs are in host defense peptides isolated from elsewhere in the world. […] We then determined the extent to which any of these variant peptides can neutralize ZIKV. […] We also generated a series of mutant Yodha peptides, including one which lacks the C terminal DDQERC, a short 12 peptide fragment that lacks the EEERGA from variant #12, and a S1P peptide that replace S1-P in the full-length Yodha (Fig. 5D) and tested their activity against ZIKV (Fig. 5D).
# as §1
smiles,measurement,setting,value
CC[C@H](C)[C@H](NC(=O)[C@@H](NC(=O)CNC(=O)[C@H](CC(C)C)NC(=O)[C@H](Cc1ccccc1)NC(=O)[C@H](Cc1ccccc1)NC(=O)[C@H](CC(C)C)NC(=O)[C@H](CC(C)C)NC(=O)[C@H](CC(C)C)NC(=O)[C@H](CCSC)NC(=O)[C@@H](N)CO)[C@@H](C)O)C(=O)N[C@@H](CO)C(=O)N[C@@H](CC(C)C)C(=O)N[C@@H](CO)C(=O)N[C@@H](CC(C)C)C(=O)N[C@@H](CS)C(=O)N[C@@H](CCC(N)=O)C(=O)N[C@@H](CC(=O)O)C(=O)N[C@@H](CC(=O)O)C(=O)N[C@@H](CCC(N)=O)C(=O)N[C@@H](CCC(=O)O)C(=O)N[C@@H](CCCNC(=N)N)C(=O)N[C@@H](CS)C(=O)O [Yodha] (H-SMLLLFFLGTISLSLCQDDQERC-OH; N-terminus and C-terminus assumed),inhibition of DENV3,[1]; 50 µM peptide,not DENV3
same,inhibition of DENV3,[1]; 160 µM peptide,very efficient
same,inhibition of ZIKV strain,[2],inhibited
same,inhibition of ZIKV strain,[3],inhibited
same,inhibition of ZIKV strain,[4],inhibited
same,virus particle integrity by electron microscopy,[5],disruption of viral particles
same,expression of ZIKV envelope in cells (immunofluorescence),[6],decreased expression of ZIKV envelope
same,cytotoxicity against human erythrocytes (screen of the 12 hits),[7],no cytotoxicity
same,"anti-viral activity against ZIKV, D- versus L-enantiomer",[8],comparable anti-viral activity
